Results as given in ChEMBL document CHEMBL4715855, “N-phenyl ureidobenzenesulfonates, a novel class of promising human dihydroorotate dehydrogenase inhibitors” (Bioorg Med Chem, 2020).

How the values were obtained:
Format in all cases: functional, cell-based
CCRF-CEM = experiment: Antiproliferative activity against human CCRF-CEM cells assessed as cell growth inhibition measured after 48 hrs by sulforhodamine B assay
SF-268 = experiment: Antiproliferative activity against human SF-268 cells assessed as cell growth inhibition measured after 48 hrs by sulforhodamine B assay; conditions: SF-268, 48 h
HT-29 [1] = experiment: Antiproliferative activity against human HT-29 cells assessed as cell growth inhibition measured after 48 hrs by SRB assay; conditions: HT-29, 48 h
SF-295 = experiment: Antiproliferative activity against human SF-295 cells assessed as cell growth inhibition measured after 48 hrs by sulforhodamine B assay; conditions: SF-295, 48 h
NCI-H226 = experiment: Antiproliferative activity against human NCI-H226 cells assessed as cell growth inhibition measured after 48 hrs by sulforhodamine B assay; conditions: NCI-H226, 48 h
A498 = experiment: Antiproliferative activity against human A498 cells assessed as cell growth inhibition measured after 48 hrs by sulforhodamine B assay; conditions: A498, 48 h
HOP-62 = experiment: Antiproliferative activity against human HOP-62 cells assessed as cell growth inhibition measured after 48 hrs by sulforhodamine B assay; conditions: HOP-62, 48 h
SNB-75 = experiment: Antiproliferative activity against human SNB-75 cells assessed as cell growth inhibition measured after 48 hrs by sulforhodamine B assay; conditions: SNB-75, 48 h
NCI-H23 = experiment: Antiproliferative activity against human NCI-H23 cells assessed as cell growth inhibition measured after 48 hrs by sulforhodamine B assay; conditions: NCI-H23, 48 h
786-0 = experiment: Antiproliferative activity against human 786-0 cells assessed as cell growth inhibition measured after 48 hrs by sulforhodamine B assay; conditions: 786-0, 48 h
MCF7 = experiment: Antiproliferative activity against human MCF7 cells assessed as cell growth inhibition measured after 48 hrs by SRB assay; conditions: MCF7, 48 h
SNB-19 = experiment: Antiproliferative activity against human SNB-19 cells assessed as cell growth inhibition measured after 48 hrs by sulforhodamine B assay; conditions: SNB-19, 48 h
SK-MEL-5 = experiment: Antiproliferative activity against human SK-MEL-5 cells assessed as cell growth inhibition measured after 48 hrs by sulforhodamine B assay; conditions: SK-MEL-5, 48 h
HT-29 [2] = experiment: Antiproliferative activity against human HT-29 cells assessed as cell growth inhibition measured after 48 hrs in presence of uridine by SRB assay; conditions: HT-29, 48 h
UACC-257 = experiment: Antiproliferative activity against human UACC-257 cells assessed as cell growth inhibition measured after 48 hrs by sulforhodamine B assay; conditions: UACC-257, 48 h
OVCAR-8 = experiment: Antiproliferative activity against human OVCAR-8 cells assessed as cell growth inhibition measured after 48 hrs by sulforhodamine B assay; conditions: OVCAR-8, 48 h
PC-3 = experiment: Antiproliferative activity against human PC-3 cells assessed as cell growth inhibition measured after 48 hrs by sulforhodamine B assay; conditions: PC-3, 48 h
[3] = system: Panel NCI-60 (60 carcinoma cell lines); experiment: Antiproliferative activity against human Panel NCI-60 (60 carcinoma cell lines) assessed as cell growth inhibition measured after 48 hrs by SRB assay
A549 = experiment: Antiproliferative activity against human A549/ATCC cells assessed as cell growth inhibition measured after 48 hrs by sulforhodamine B assay; conditions: A549, 48 h
CAKI-1 = experiment: Antiproliferative activity against human CAKI-1 cells assessed as cell growth inhibition measured after 48 hrs by sulforhodamine B assay; conditions: CAKI-1, 48 h
[4] = system: Panel colon (Carcinoma cell lines); experiment: Antiproliferative activity against human Panel colon (Carcinoma cell lines) assessed as cell growth inhibition measured after 48 hrs by SRB assay
MDA-MB-435 = experiment: Antiproliferative activity against human MDA-MB-435 cells assessed as cell growth inhibition measured after 48 hrs by sulforhodamine B assay; conditions: MDA-MB-435, 48 h
SK-MEL-28 = experiment: Antiproliferative activity against human SK-MEL-28 cells assessed as cell growth inhibition measured after 48 hrs by sulforhodamine B assay; conditions: SK-MEL-28, 48 h
UACC-62 = experiment: Antiproliferative activity against human UACC-62 cells assessed as cell growth inhibition measured after 48 hrs by sulforhodamine B assay; conditions: UACC-62, 48 h
KM12 = experiment: Antiproliferative activity against human KM12 cells assessed as cell growth inhibition measured after 48 hrs by sulforhodamine B assay; conditions: KM12, 48 h
MOLT-4 = experiment: Antiproliferative activity against human MOLT-4 cells assessed as cell growth inhibition measured after 48 hrs by sulforhodamine B assay; conditions: MOLT-4, 48 h
HCT-15 = experiment: Antiproliferative activity against human HCT-15 cells assessed as cell growth inhibition measured after 48 hrs by sulforhodamine B assay; conditions: HCT-15, 48 h
HT-1080 = experiment: Antiproliferative activity against human HT-1080 cells assessed as cell growth inhibition measured after 48 hrs in presence of uridine by SRB assay; conditions: HT-1080, 48 h
MDA-MB-231 = experiment: Antiproliferative activity against human MDA-MB-231/ATCC cells assessed as cell growth inhibition measured after 48 hrs by sulforhodamine B assay; conditions: MDA-MB-231, 48 h
SF-539 = experiment: Antiproliferative activity against human SF-539 cells assessed as cell growth inhibition measured after 48 hrs by sulforhodamine B assay; conditions: SF-539, 48 h
OVCAR-5 = experiment: Antiproliferative activity against human OVCAR-5 cells assessed as cell growth inhibition measured after 48 hrs by sulforhodamine B assay; conditions: OVCAR-5, 48 h
RXF 393 = experiment: Antiproliferative activity against human RXF 393 cells assessed as cell growth inhibition measured after 48 hrs by sulforhodamine B assay; conditions: RXF 393, 48 h

IC50 (CCRF-CEM): 0.912 µM | IC50 (HT-29 [1]; read-out: IC50): 0.99 µM | IC50 (HT-29 [1]; read-out: pIC50 (converted)): 1.02 µM | IC50 (NCI-H226): 9.33 µM | IC50 (NCI-H23): 12.9 µM | IC50 (786-0): 9.12 µM | IC50 (MCF7; read-out: IC50): 5.9 µM | IC50 (MCF7; read-out: pIC50 (converted)): 3.24 µM | IC50 (SK-MEL-5): 2.45 µM | IC50 (HT-29 [2]): 27 µM | IC50 (OVCAR-8): 0.851 µM | IC50 (PC-3): 0.832 µM | IC50 (A549): 0.955 µM | IC50 [4]: 1.5 µM | IC50 (MDA-MB-435): 4.47 µM | IC50 (SK-MEL-28): 11.7 µM | IC50 (MOLT-4): 0.282 µM | IC50 (HCT-15): 0.251 µM | IC50 (HT-1080): 7.4 µM | IC50 (MDA-MB-231): 11.7 µM | IC50 (OVCAR-5): 22.9 µM
Compound: CCNC(=O)Nc1ccc(S(=O)(=O)Oc2ccccc2CC)cc1
IC50 (SF-268): 2.88 µM | IC50 (SF-295): 0.759 µM | IC50 (A498): 5.89 µM | IC50 (HOP-62): 14.5 µM | IC50 (SNB-75): 9.12 µM | IC50 (SNB-19): 3.63 µM | IC50 (UACC-257): 13.2 µM | IC50 [3]: 3.5 µM | IC50 (CAKI-1): 0.759 µM | IC50 (UACC-62): 2.51 µM | IC50 (KM12): 1.15 µM | IC50 (SF-539): 2.14 µM | IC50 (RXF 393): 12.6 µM
